Test results published in patent publication US20070265289A1, “2-Aminopyrimidine Derivative” (priority 2004, published 2007).
Where a name gives a salt, the structure may show the parent alone.

Key:
[1] = test system: TNF-α production; experiment: Mouse LPS-induced TNF-α production model; format: in vivo, Balb/c female mice; details: oral administration of 30 mg/kg, 60 minutes before LPS, blood 90 minutes after LPS; for inhibition in vivo at 30 mg/kg: Mus musculus, po, 1.5 h, read-out: inhibition of plasma TNF-α
Method: (2) Mouse LPS-Induced TNF-α Production Model:
6 weeks old Balb/c female mice were placed into two groups, a control group and a test compound administration group. A solution containing 10 μg/mouse of LPS in 0.9% physiological salt was administered by intraperitoneal injection into the control mice. 60 minutes before the LPS administration, a compound of the invention was orally administered to the mice of the test compound administration group. Under anesthesia with diethyl ether, blood was collected from the posterior venous cavity of the mice of both the test compound administration group and the control group at 90 minutes after the LPS administration, and treated with heparin, and the plasma was separated from it through centrifugation at 10000 rpm at 4° C. for 10 minutes, and then diluted two-fold with PBS (pH 7.4).
The TNF-α concentration in the sample was determined with an ELISA kit (by Pharmingen, San Diego, Calif.). The inhibition by the mice of the test compound administration group relative to the mean inhibition by those of the control group was calculated as a mean value thereof.
The inhibition in oral administration of 30 mg/kg of compound (I) is shown below.

[2] = biological target: T1, rat IKK2 (Rattus norvegicus, UniProt Q9QY78); experiment: Evaluation of rat IKK2 enzyme inhibition; format: biochemical; details: 0.5 μM ATP, probit analysis; read-out: IC50, rat IKK2 enzyme activity-inhibitory effect
T1 construct: ORF of rat IKK2 (GenBank AF115282) was cloned from a rat pancreas cDNA library; FLAG; made in house; host or cells: Sf9 insect cells
T1 sequence (Q9QY78 1-757): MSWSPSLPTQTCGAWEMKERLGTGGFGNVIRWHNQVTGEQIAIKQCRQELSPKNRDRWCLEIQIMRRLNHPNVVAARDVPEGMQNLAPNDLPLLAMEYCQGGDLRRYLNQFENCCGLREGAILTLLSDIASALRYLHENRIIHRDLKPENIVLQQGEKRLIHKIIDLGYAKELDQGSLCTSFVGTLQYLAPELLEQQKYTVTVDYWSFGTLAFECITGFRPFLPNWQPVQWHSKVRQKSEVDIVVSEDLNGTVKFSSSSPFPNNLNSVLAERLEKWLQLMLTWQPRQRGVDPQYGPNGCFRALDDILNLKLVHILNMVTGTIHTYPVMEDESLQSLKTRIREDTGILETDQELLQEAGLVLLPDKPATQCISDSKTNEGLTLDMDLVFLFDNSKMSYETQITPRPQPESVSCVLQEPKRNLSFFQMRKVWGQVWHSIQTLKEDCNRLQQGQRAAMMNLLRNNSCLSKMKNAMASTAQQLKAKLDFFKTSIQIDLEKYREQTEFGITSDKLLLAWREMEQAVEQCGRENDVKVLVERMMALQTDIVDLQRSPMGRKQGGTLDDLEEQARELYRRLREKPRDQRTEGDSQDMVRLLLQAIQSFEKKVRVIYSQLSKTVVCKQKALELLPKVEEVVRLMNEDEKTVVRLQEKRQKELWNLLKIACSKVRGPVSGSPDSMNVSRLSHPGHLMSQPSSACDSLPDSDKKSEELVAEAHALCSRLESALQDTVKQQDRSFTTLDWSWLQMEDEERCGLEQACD
Method: (1) Evaluation of Rat IKK2 Enzyme Inhibition:
ORF of rat IKK2 (GenBank AF115282) was cloned from a rat pancreas cDNA library, and with a FLAG-tag attached thereto, it was expressed in an Sf9 cell line. The cells were dissolved in a cytolytic solution (50 mM Tris-HCl pH 7.5, 0.15M NaCl, 1% NP-40, 10% glycerol, 1 mM EDTA, 1 mM EGTA pH 7.5, 1 mM Na3VO4, 5 mM p-nitrophenylphosphate, 10 mM O-glycerophosphate, 1 mM DTT, 1 mM PMSF, 10 μg/ml leupeptin, 10 μg/ml aprotinin (by Sigma)) to prepare a large amount of an cell extract, which was then purified on an anti-FLAG M2 antibody (by Sigma). This experimental operation was carried out in accordance with gene manipulation experiment manuals such as known methods (Sambrook, J. et al, Molecular Cloning-A Laboratory Manual, Cold Spring Harbor laboratory, NY, 1989) or the instructions attached to the reagents. The purified rat IKK2 was stored in an enzyme preservative (20 mM Tris-HCl pH 7.5, 10% glycerol, 12.5 mM β-glycerophosphate, 0.5 mM EDTA, 0.5 mM EGTA, 0.05% Brij35, 1 mM DTT, 1 mM PMSF (by Sigma)) at −80° C.
The purified rat IKK2, 1× enzymatic reaction buffer (20 mM Tris-HCl pH 7.5, 12.5 mM O-glycerophosphate, 20 mM MgCl2, 0.1 mM DTT), 0.01% BSA (by Sigma), 0.5 μM ATP, 0.2 μM biotinated substrate peptide (18th to 49th amino acid residues of rat I-kappa B alpha (GenBank Q63746)) and a test compound dissolved in DMSO were added to a 384-well plate (catalogue No. 3677, by Corning) to be 10 μl in total therein, and left at room temperature for 90 minutes. Next, […] of a reaction stopper (100 mM Hepse pH 8, 0.01% BSA, 0.8 M KF, 50 mM EDTA pH 8, 1% Triton X-100, europium cryptate-labeled anti-phosphorylation I-kappa B alpha-antibody (by Santa Cru), streptoavidin-labeled XL665 (by Nihon Schering)) was added thereto, kept warmed for 30 minutes, and then assayed with DISCOVERY (by Perkin-Elmer). The rat IKK2 enzyme activity-inhibitory effect of the tested compound was obtained according to the following formula. Every dose was tested independently three times. Inhibition (%) by Test Compound=((mean value with rat IKK2 but not with test compound)−(mean value with both test compound and rat IKK2))/((mean value with rat IKK2 but not with test compound)−(mean value not with rat IKK2))×100.

[3] = test system: carrageenan paw edema; experiment: Rat carrageenan paw edema model; format: in vivo, Sprague-Dawley male rats; details: for edema inhibitory activity: 30 mg/kg oral administration, 3 hours after carrageenan
Method: (3) Rat Carrageenan Paw Edema Model:
After their body weight was measured, Sprague-Dawley male rats (6-10 weeks age, male, by Nippon SLC) were divided into groups of 5 rats each in such a manner that the mean body weight of each group could be on the same level. Next, a test compound was orally administered to the rats (but 10 mL/kg of solvent alone was administered to those of the control group). 30 minutes after the test compound administration thereto, 100 μL of a 1% carrageenan (by Sigma Aldrich Japan) solution was subcutaneously injected to the sub-plantar of the right foot of each rat to induce inflammation. 3 hours after the inflammation induction, the rats were killed by deep anesthetization with ether, and their tissue below the right and left ankles was cut and collected and its weight was measured.
The test result was obtained as follows: In every rat, the weight of the left foot with no carrageenan injection thereto was subtracted from the weight of the right foot with carrageenan injection thereto, 3 hours after the carrageenan injection, thereby calculating the weight difference (g) therebetween. The edema inhibition in the test compound-administered rats was calculated relative to the mean value of the rats of the control group. For multi-group comparison between the control group and the test compound administration group, employed was a Dunnett multiple comparison test, in which the P value less than 0.05 was considered as statistical significance. All the above statistical analyses were carried out, using SAS.

SMILES	IC50 [2] [nM]	also measured
Nc1nc(-c2c(O)cccc2OCC(F)(F)C(F)F)cc(C2CCCNC2)n1 (centres unmarked) [Example 89]	≤ 500	inhibition in vivo at 30 mg/kg [1]: 87%
CC(C)OCCOc1cccc(O)c1-c1cc(C2CCCNC2)nc(N)n1 (centres unmarked) [Example 100]	≤ 500	
Cc1cc(O)c(-c2cc(C3CCCNC3)nc(N)n2)c(OCC2CC2)c1 (centres unmarked) [Example 40]	≤ 500	
CN(Cc1cnc2nc(N)nc(N)c2n1)c1ccc(C(=O)N[C@@H](CCC(=O)O)C(=O)O)cc1 [Methotrexate, reference compound]		effect on carrageenan paw edema ([3]; dose not given): did not exhibit an effect
CC(C)COc1cccc(O)c1-c1cc(C2CCNCC2)nc(N)n1 [Example 146]	≤ 500	
Nc1nc(-c2cc(F)ccc2O)cc(C2CCCNC2)n1 (centres unmarked) [Example 12]	≤ 500	
CCc1ccc(O)c(-c2cc(C3CCCNC3)nc(N)n2)c1 (single isomer, unassigned; (+)) [Example 79, (+)-2-(2-amino-6-piperidin-3-ylpyrimidin-4-yl)-4-ethylphenol dihydrochloride]		inhibition in vivo at 30 mg/kg [1]: 64%
Cc1cc(O)c(-c2cc(C3CCCNC3)nc(N)n2)cc1Cl (centres unmarked) [Example 19]	≤ 500	
Nc1nc(-c2c(O)cccc2OCCC2CCNCC2)cc(C2CCCNC2)n1 (centres unmarked) [Example 48]	≤ 500	
Nc1nc(-c2c(O)cccc2OCC(=O)c2ccccc2)cc(C2CCNCC2)n1 [Example 147]	≤ 500	
Cc1ccc(O)c(-c2cc(C3CCC(C)NC3)nc(N)n2)c1 (centres unmarked) [Example 137]	≤ 500	
Cc1ccc(-c2cc(C3CCCNC3)nc(N)n2)c(O)c1 (centres unmarked) [Example 21]	≤ 500	edema inhibitory activity [3]: 30%
Nc1nc(-c2c(O)cccc2OCC2CC2)cc(C2CCCNC2)n1 (centres unmarked) [Example 141]		inhibition in vivo at 30 mg/kg [1]: 86%
Nc1nc(-c2c(O)cccc2OCCCC(F)(F)F)cc(C2CCCNC2)n1 (centres unmarked) [Example 106]	≤ 500	inhibition in vivo at 30 mg/kg [1]: 82%
CC1(COc2cccc(O)c2-c2cc(C3CCCNC3)nc(N)n2)CC1 (centres unmarked) [Example 99]	≤ 500	
CC(COc1cccc(O)c1-c1cc(C2CCCNC2)nc(N)n1)Oc1ccccc1 (centres unmarked) [Example 103]	≤ 500	inhibition in vivo at 30 mg/kg [1]: 70%
Nc1nc(-c2c(O)cccc2OCC2CC2)cc(C2CCCNC2)n1 (centres unmarked) [Example 142]		inhibition of plasma TNF-α ([1]; 30 mg/kg): 90%
CC1CCC(Oc2cccc(O)c2-c2cc(C3CCCNC3)nc(N)n2)C1 (centres unmarked) [Example 126]	≤ 500	
CC1CCC(c2cc(-c3c(O)cccc3OCC3CC3)nc(N)n2)CN1 (centres unmarked) [Example 140]	2.9	inhibition in vivo at 30 mg/kg [1]: 86%

SMILES	IC50 [2] [nM]	also measured
Nc1nc(-c2ccc(F)cc2O)cc(C2CCCNC2)n1 (centres unmarked) [Example 13]	≤ 500	
CCc1ccc(O)c(-c2cc(C3CCCNC3)nc(N)n2)c1 (single isomer, unassigned; (-)) [Example 78, (−)-2-(2-amino-6-piperidin-3-ylpyrimidin-4-yl)-4-ethylphenol dihydrochloride]	≤ 500	
Nc1nc(-c2cc(Cl)ccc2O)cc(C2CCCNC2)n1 (centres unmarked) [Example 14]	≤ 500	
CCc1ccc(O)c(-c2cc(C3CCCNC3)nc(N)n2)c1 (centres unmarked) [Example 23]	≤ 500	edema inhibitory activity [3]: 50%
CCOc1cccc(O)c1-c1cc(C2CCCNC2)nc(N)n1 (centres unmarked) [Example 5, 2-(2-amino-6-piperidin-3-ylpyrimidin-4-yl)-3-ethoxyphenol dihydrochloride]	≤ 500	
Nc1nc(-c2c(O)cccc2OCCC2CC2)cc(C2CCCNC2)n1 (centres unmarked) [Example 104]	≤ 500	inhibition in vivo at 30 mg/kg [1]: 86%
Nc1nc(-c2ccccc2O)cc(C2CCCNC2)n1 (centres unmarked) [Example 1, 2-(2-amino-6-piperidin-3-ylpyrimidin-4-yl)phenol dihydrochloride]	≤ 500	
Nc1nc(-c2c(O)cccc2OCc2ccccc2)cc(C2CCCNC2)n1 (centres unmarked) [Example 47]	≤ 500	
Nc1nc(-c2c(O)cccc2O)cc(C2CCCNC2)n1 (centres unmarked) [Example 10, 2-(2-amino-6-piperidin-3-ylpyrimidin-4-yl)benzene-1,3-diol dihydrochloride]	≤ 500	
Cc1ccc(O)c(-c2cc(C3CNCC(C)C3)nc(N)n2)c1 (centres unmarked) [Example 136]	≤ 500	
COCCOc1cccc(O)c1-c1cc(C2CCCNC2)nc(N)n1 (centres unmarked) [Example 46]	≤ 500	
CSc1ccc(O)c(-c2cc(C3CCCNC3)nc(N)n2)c1 (centres unmarked) [Example 28]	≤ 500	
CC(C)COCCOc1cccc(O)c1-c1cc(C2CCCNC2)nc(N)n1 (centres unmarked) [Example 101]	≤ 500	
COc1ccc(O)c(-c2cc(C3CCCNC3)nc(N)n2)c1 (centres unmarked) [Example 26]	≤ 500	
Cc1ccc(O)c(-c2cc(C3CCCNC3)nc(N)n2)c1 (centres unmarked) [Example 22]	≤ 500	inhibition in vivo at 30 mg/kg [1]: 73%
CC1CC1COc1cccc(O)c1-c1cc(C2CCCNC2)nc(N)n1 (centres unmarked) [Example 65, 2-(2-amino-6-piperidin-3-ylpyrimidin-4-yl)-3-[(2-methylcyclopropyl)methoxy]phenol dihydrochloride]	≤ 500	inhibition in vivo at 30 mg/kg [1]: 75%
COc1cccc(O)c1-c1cc(C2CCCNC2)nc(N)n1 (centres unmarked) [Example 44]	≤ 500	
Nc1nc(-c2c(O)cccc2OCC2CC2)cc(C2CCNCC2)n1 [Example 145]	≤ 500	
Nc1nc(-c2c(O)cccc2OCc2ccc(Br)cc2)cc(C2CCCNC2)n1 (centres unmarked) [Example 108]	≤ 500	
